# Results: PubChem BioAssay AID330 (DTP/NCI, 2004)
# Values joined by “and” are separate entries in the source; they are usually repeats but may differ in a detail not shown here. Equal entries are not always repeated. Inconclusive results and toxic doses are left out.
# Test system: P388 leukemia ip, CD2F1 mice, survival T/C
# Assay: NCI In Vivo Anticancer Drug Screen. Data for tumor model P388 Leukemia (intraperitoneal) in CD2F1 (CDF1) mice
# Conditions: endpoint: median survival time, higher = longer survival
# Summary of the method: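 Mice carrying the transplanted tumor received test compound or vehicle. Survival was recorded in each group, and the value is the treated-group measurement divided by that of the vehicle-treated control group.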
# [1] = dose: 60.0 mg/kg/injection, schedule: Q01DX005 (ip), vehicle: saline with Tween-80
# [2] = dose: 120.0 mg/kg/injection, schedule: Q01DX005 (ip), vehicle: saline with Tween-80
# [3] = dose: 240.0 mg/kg/injection, schedule: Q01DX005 (ip), vehicle: saline with Tween-80
# [4] = dose: 50.0 mg/kg/injection, schedule: Q01DX005 (ip), vehicle: saline with Tween-80
# [5] = dose: 100.0 mg/kg/injection, schedule: Q01DX005 (ip), vehicle: saline with Tween-80
# [6] = dose: 200.0 mg/kg/injection, schedule: Q01DX005 (ip), vehicle: saline with Tween-80
# [7] = dose: 25.0 mg/kg/injection, schedule: Q01DX009 (ip), vehicle: saline with Tween-80
# [8] = dose: 50.0 mg/kg/injection, schedule: Q01DX009 (ip), vehicle: saline with Tween-80
# [9] = dose: 100.0 mg/kg/injection, schedule: Q01DX009 (ip), vehicle: saline with Tween-80
# [10] = dose: 200.0 mg/kg/injection, schedule: Q01DX009 (ip), vehicle: saline with Tween-80
# [11] = dose: 100.0 mg/kg/injection, schedule: Q01DX009 (ip), vehicle: Klucel (hydroxypropylcellulose) (HPC)
# [12] = dose: 200.0 mg/kg/injection, schedule: Q01DX009 (ip), vehicle: Klucel (hydroxypropylcellulose) (HPC)
# [13] = dose: 100.0 mg/kg/injection, schedule: Q01DX001 (ip), vehicle: Klucel (hydroxypropylcellulose) (HPC)
# [14] = dose: 200.0 mg/kg/injection, schedule: Q01DX001 (ip), vehicle: Klucel (hydroxypropylcellulose) (HPC)
# [15] = dose: 50.0 mg/kg/injection, schedule: Q01DX005 (ip), vehicle: Klucel (hydroxypropylcellulose) (HPC)
# [16] = dose: 100.0 mg/kg/injection, schedule: Q04DX003 (ip), vehicle: saline
# [17] = dose: 50.0 mg/kg/injection, schedule: Q04DX003 (ip), vehicle: saline
# [18] = dose: 200.0 mg/kg/injection, schedule: Q04DX003 (ip), vehicle: saline
compound,measurement,setting,value
Cc1ccccc1NC(=O)C1C(=O)N(c2ccccc2C)C(=O)/C1=N/O (stereo not given),T/C,[1],99 % of control
same,T/C,[2],97 % of control
same,T/C,[3],94 % of control
COc1cc(C2c3cc4c(cc3OC(OC(C)=O)C2C)OCO4)cc(OC)c1OC (stereo not given),T/C,[1],96 % of control
same,T/C,[2],94 % of control
same,T/C,[3],105 % of control
Cc1cc(=O)oc2cc(OCc3c(F)cccc3Cl)ccc12,T/C,[1],97 % of control
same,T/C,[2],90 % of control
same,T/C,[3],91 % of control
CC#CS(=O)C#CC,T/C,"dose: 3.12 mg/kg/injection, schedule: Q01DX009 (ip), vehicle: distilled water + alcohol",105 % of control
same,T/C,"dose: 6.25 mg/kg/injection, schedule: Q01DX009 (ip), vehicle: distilled water + alcohol",105 % of control
CCN(CC)C(=O)c1cc2c(=O)c3c(ccc4ccccc43)oc2n(C)c1=O,T/C,[4],98 % of control
same,T/C,[5],90 % of control
same,T/C,[6],90 % of control
Cc1ccc(C)c(CCNC=O)c1,T/C,[7],100 % of control
same,T/C,[8],110 % of control
same,T/C,[9],98 % of control
same,T/C,[10],103 % of control
CN(N=O)C1=NC(C)(CCl)P(=O)(NNc2ncccn2)O1 (stereo not given),T/C,"dose: 60.0 mg/kg/injection, schedule: Q01DX005 (ip), vehicle: saline",108 % of control
same,T/C,"dose: 120.0 mg/kg/injection, schedule: Q01DX005 (ip), vehicle: saline",110 % of control
COc1cc2c(c(OC)c1OC)-c1cc3c(cc1C(OC1OC4COC(c5cccs5)OC4C(O)C1O)C1COC(=O)C1C2)OCO3 (stereo not given),T/C,"dose: 14.5 mg/kg/injection, schedule: Q01DX005 (ip), vehicle: Klucel (hydroxypropylcellulose) (HPC)",101 % of control
same,T/C,"dose: 29.0 mg/kg/injection, schedule: Q01DX005 (ip), vehicle: Klucel (hydroxypropylcellulose) (HPC)",99 % of control
same,T/C,"dose: 58.0 mg/kg/injection, schedule: Q01DX005 (ip), vehicle: Klucel (hydroxypropylcellulose) (HPC)",94 % of control
same,T/C,"dose: 116.0 mg/kg/injection, schedule: Q01DX005 (ip), vehicle: Klucel (hydroxypropylcellulose) (HPC)",90 % of control
O=[N+]([O-])c1ccc(S(=O)(=O)c2ccc([N+](=O)[O-])cc2)cc1,T/C,"dose: 6.25 mg/kg/injection, schedule: Q04DX003 (ip), vehicle: suspension in saline",100 % of control
same,T/C,"dose: 12.5 mg/kg/injection, schedule: Q04DX003 (ip), vehicle: suspension in saline",100 % of control
same,T/C,"dose: 25.0 mg/kg/injection, schedule: Q04DX003 (ip), vehicle: suspension in saline",108 % of control
same,T/C,"dose: 50.0 mg/kg/injection, schedule: Q04DX003 (ip), vehicle: suspension in saline",106 % of control
CC(C)(C)C(=O)Nc1ccc(C(C)(C)C)cc1C(O)(C(F)(F)F)C(F)(F)F,T/C,[11],92 % of control
same,T/C,[12],88 % of control
O=c1oc2cc(Cl)cnc2n1-c1ccccc1,T/C,[13],96 % of control
same,T/C,[14],98 % of control
same,T/C,"dose: 400.0 mg/kg/injection, schedule: Q01DX001 (ip), vehicle: Klucel (hydroxypropylcellulose) (HPC)",90 % of control
COc1cc(C(NC(N)=O)c2cc3c(cc2O)OCO3)cc(OC)c1OC (stereo not given),T/C,[1],106 % of control
same,T/C,[2],102 % of control
same,T/C,[3],100 % of control
CSc1nc(N)c(NS(=O)(=O)c2cccc([N+](=O)[O-])c2)c(=O)[nH]1,T/C,"dose: 60.0 mg/kg/injection, schedule: Q01DX005 (ip), vehicle: Klucel (hydroxypropylcellulose) (HPC)",92 % of control
same,T/C,"dose: 120.0 mg/kg/injection, schedule: Q01DX005 (ip), vehicle: Klucel (hydroxypropylcellulose) (HPC)",94 % of control
same,T/C,"dose: 240.0 mg/kg/injection, schedule: Q01DX005 (ip), vehicle: Klucel (hydroxypropylcellulose) (HPC)",88 % of control
Cc1ccc(Br)cc1CCO,T/C,[15],98 % of control and 97 % of control
same,T/C,"dose: 100.0 mg/kg/injection, schedule: Q01DX005 (ip), vehicle: Klucel (hydroxypropylcellulose) (HPC)",99 % of control and 100 % of control
same,T/C,"dose: 200.0 mg/kg/injection, schedule: Q01DX005 (ip), vehicle: Klucel (hydroxypropylcellulose) (HPC)",100 % of control and 120 % of control
CCC[CH2][Sn]([Cl])([Cl])[CH2]CCC,T/C,"dose: 0.19 mg/kg/injection, schedule: Q01DX009 (ip), vehicle: saline with Tween-80",100 % of control
same,T/C,"dose: 0.38 mg/kg/injection, schedule: Q01DX009 (ip), vehicle: saline with Tween-80",113 % of control
same,T/C,"dose: 0.75 mg/kg/injection, schedule: Q01DX009 (ip), vehicle: saline with Tween-80",114 % of control and 120 % of control
same,T/C,"dose: 1.5 mg/kg/injection, schedule: Q01DX009 (ip), vehicle: saline with Tween-80",112 % of control and 114 % of control
same,T/C,"dose: 3.0 mg/kg/injection, schedule: Q01DX009 (ip), vehicle: saline with Tween-80",168 % of control
same,T/C,"dose: 6.0 mg/kg/injection, schedule: Q01DX009 (ip), vehicle: saline with Tween-80",91 % of control
same,T/C,[16],109 % of control
CN1C(=NCCO)NS(=O)(=O)c2ccccc21,T/C,[4],98 % of control
same,T/C,[5],100 % of control
same,T/C,[6],104 % of control
COC(=O)C1(C(=O)OC)CCCC2=NOC3CCC1C23 (stereo not given),T/C,"dose: 6.25 mg/kg/injection, schedule: Q01DX002 (ip), vehicle: Klucel (hydroxypropylcellulose) (HPC)",107 % of control
same,T/C,"dose: 12.5 mg/kg/injection, schedule: Q01DX002 (ip), vehicle: Klucel (hydroxypropylcellulose) (HPC)",100 % of control
same,T/C,"dose: 25.0 mg/kg/injection, schedule: Q01DX002 (ip), vehicle: Klucel (hydroxypropylcellulose) (HPC)",93 % of control
COC(=O)c1cc(-c2ccc3ccccc3c2)[nH]c(=O)c1C#N,T/C,"dose: 30.0 mg/kg/injection, schedule: Q01DX005 (ip), vehicle: saline with Tween-80",100 % of control
same,T/C,[1],91 % of control and 92 % of control
same,T/C,[2],96 % of control
COCc1nnc2c(N)nccn12,T/C,[13],99 % of control
same,T/C,[14],93 % of control
C=C1C2CCC3(C)C(c4ccoc4)OC(=O)CC13OC1CC(=O)C(C)(C)C(CC(=O)OC)C12C (stereo not given),T/C,[7],99 % of control
same,T/C,[8],99 % of control
same,T/C,[9],99 % of control
same,T/C,[10],98 % of control
C=C(C(C)=O)c1ccccc1,T/C,"dose: 25.0 mg/kg/injection, schedule: Q01DX009 (ip), vehicle: Klucel (hydroxypropylcellulose) (HPC)",100 % of control
same,T/C,"dose: 50.0 mg/kg/injection, schedule: Q01DX009 (ip), vehicle: Klucel (hydroxypropylcellulose) (HPC)",98 % of control
same,T/C,[11],100 % of control
same,T/C,[12],107 % of control
same,T/C,"dose: 400.0 mg/kg/injection, schedule: Q01DX009 (ip), vehicle: Klucel (hydroxypropylcellulose) (HPC)",107 % of control
COc1ccc2ccc3nonc3c2c1,T/C,[4],92 % of control
same,T/C,[5],99 % of control
same,T/C,[6],91 % of control
O=c1[nH]c(=S)[nH]cc1-c1ccc(Cl)c(Cl)c1,T/C,"dose: 50.0 mg/kg/injection, schedule: Q01DX009 (ip), vehicle: suspension in saline",105 % of control
same,T/C,"dose: 100.0 mg/kg/injection, schedule: Q01DX009 (ip), vehicle: suspension in saline",104 % of control
same,T/C,"dose: 200.0 mg/kg/injection, schedule: Q01DX009 (ip), vehicle: suspension in saline",106 % of control
CC(=O)NN,T/C,[8],104 % of control
same,T/C,[17],105 % of control
same,T/C,[16],100 % of control
same,T/C,[18],100 % of control
CC(C)(C#N)NNC(N)=S,T/C,"dose: 3.12 mg/kg/injection, schedule: Q01DX009 (ip), vehicle: saline",103 % of control
same,T/C,"dose: 6.25 mg/kg/injection, schedule: Q01DX009 (ip), vehicle: saline",100 % of control
same,T/C,"dose: 12.5 mg/kg/injection, schedule: Q01DX009 (ip), vehicle: saline",87 % of control and 93 % of control
same,T/C,[17],96 % of control
same,T/C,[16],96 % of control
same,T/C,[18],94 % of control
C=Cn1c([N+](=O)[O-])cnc1/C=C/c1ccc(C(=O)OCCN(CC)CC)cc1,T/C,"dose: 100.0 mg/kg/injection, schedule: Q04DX002 (ip), vehicle: Klucel (hydroxypropylcellulose) (HPC)",99 % of control
same,T/C,"dose: 200.0 mg/kg/injection, schedule: Q04DX002 (ip), vehicle: Klucel (hydroxypropylcellulose) (HPC)",103 % of control
CCC(O)(C(=O)O)c1cc[n+](Cc2cnc3ccccc3c2)cc1C (stereo not given),T/C,"dose: 12.5 mg/kg/injection, schedule: Q01DX005 (ip), vehicle: Klucel (hydroxypropylcellulose) (HPC)",96 % of control
same,T/C,"dose: 25.0 mg/kg/injection, schedule: Q01DX005 (ip), vehicle: Klucel (hydroxypropylcellulose) (HPC)",86 % of control
same,T/C,[15],100 % of control
